From publication PMC5218480 (PLoS ONE, 2017)

Test system: MV-4-11 cells
Test: Gene expression microarray analysis (Affymetrix PrimeView) and GSEA
Assay type: cell-based, human
Parameters: RFU PODN (11730768_x_at) / Fold change /veh PODN (11730768_x_at) / RFU LINC00158 (11744669_a_at) / Fold change /veh LINC00158 (11744669_a_at) / RFU DUSP10 (11751237_a_at) / Fold change /veh DUSP10 (11751237_a_at) / RFU ID3 (11757404_x_at) / Fold change /veh ID3 (11757404_x_at) / RFU PLEKHG5 (11737974_s_at) / Fold change /veh PLEKHG5 (11737974_s_at) / RFU LRRC4B (11730491_at) / Fold change /veh LRRC4B (11730491_at) / RFU GIMAP4 (11747438_a_at) / Fold change /veh GIMAP4 (11747438_a_at) / RFU KRT8 (11758183_x_at) / Fold change /veh KRT8 (11758183_x_at) / RFU CNN1 (11734310_a_at) / Fold change /veh CNN1 (11734310_a_at) / RFU VPS37D (11726825_at) / Fold change /veh VPS37D (11726825_at) / RFU C10orf10 (11716522_x_at) / Fold change /veh C10orf10 (11716522_x_at) / RFU KIR2DL2 /// KIR2DL4 /// KIR2DL5A /// KIR2DL5B /// KIR2DS1 /// KIR2DS2 /// KIR2DS3 /// KIR2DS4 /// KIR3DL3 /// KIR3DL3 /// KIR3DS1 (11738374_at) / Fold change /veh KIR2DL2 /// KIR2DL4 /// KIR2DL5A /// KIR2DL5B /// KIR2DS1 /// KIR2DS2 /// KIR2DS3 /// KIR2DS4 /// KIR3DL3 /// KIR3DL3 /// KIR3DS1 (11738374_at) / RFU C1QL1 (11718748_at) / Fold change /veh C1QL1 (11718748_at) / RFU TMPRSS4 (11747572_a_at) / Fold change /veh TMPRSS4 (11747572_a_at) / RFU HAMP (11756126_x_at) / Fold change /veh HAMP (11756126_x_at) / RFU RNFT2 (11725882_a_at) / Fold change /veh RNFT2 (11725882_a_at) / RFU NR4A2 (11747474_a_at) / Fold change /veh NR4A2 (11747474_a_at) / RFU ABCC12 (11746883_a_at) / Fold change /veh ABCC12 (11746883_a_at) / RFU TMEM136 (11760407_x_at) / Fold change /veh TMEM136 (11760407_x_at) / RFU CLDN22 /// WWC2 (11732394_at) / Fold change /veh CLDN22 /// WWC2 (11732394_at) / RFU HLA-DPB1 (11760878_x_at) / Fold change /veh HLA-DPB1 (11760878_x_at) / RFU SPINT1 (11716480_a_at) / Fold change /veh SPINT1 (11716480_a_at) / RFU GAP43 (11754022_s_at) / Fold change /veh GAP43 (11754022_s_at) / RFU A4GNT (11735810_at) / Fold change /veh A4GNT (11735810_at) / RFU PRB3 (11715151_x_at) / Fold change /veh PRB3 (11715151_x_at) / RFU TUBB4B (11761932_at) / Fold change /veh TUBB4B (11761932_at) / RFU CAPN14 (11732068_a_at) / Fold change /veh CAPN14 (11732068_a_at) / RFU TMCC2 (11721928_a_at) / Fold change /veh TMCC2 (11721928_a_at) / RFU IRGQ (11745062_a_at) / Fold change /veh IRGQ (11745062_a_at) / RFU FAM174B (11720279_a_at) / Fold change /veh FAM174B (11720279_a_at) / RFU TMPRSS4 (11748680_a_at) / Fold change /veh TMPRSS4 (11748680_a_at) / RFU FAM212B (11763350_a_at) / Fold change /veh FAM212B (11763350_a_at) / RFU PLEKHG5 (11743358_a_at) / Fold change /veh PLEKHG5 (11743358_a_at) / RFU ZSCAN30 (11745921_a_at) / Fold change /veh ZSCAN30 (11745921_a_at) / RFU CMKLR1 (11741424_a_at) / Fold change /veh CMKLR1 (11741424_a_at) / RFU LOC101060620 /// MAPK8IP1 (11723275_at) / Fold change /veh LOC101060620 /// MAPK8IP1 (11723275_at) / RFU SPTSSB (11747773_x_at) / Fold change /veh SPTSSB (11747773_x_at) / RFU PRSS12 (11739890_at) / Fold change /veh PRSS12 (11739890_at) / RFU BIN1 (11741810_x_at) / Fold change /veh BIN1 (11741810_x_at) / RFU WNT11 (11732464_a_at) / Fold change /veh WNT11 (11732464_a_at) / RFU C10orf10 (11716521_a_at) / Fold change /veh C10orf10 (11716521_a_at) / RFU C5orf56 (11738089_at) / Fold change /veh C5orf56 (11738089_at) / RFU CYB561 (11721691_x_at) / Fold change /veh CYB561 (11721691_x_at) / RFU ANKRD19P (11752326_a_at) / Fold change /veh ANKRD19P (11752326_a_at) / RFU OR2T12 /// OR2T33 /// OR2T8 (11738714_s_at) / Fold change /veh OR2T12 /// OR2T33 /// OR2T8 (11738714_s_at) / RFU VCAN (11748164_a_at) / Fold change /veh VCAN (11748164_a_at) / RFU JSRP1 (11732532_at) / Fold change /veh JSRP1 (11732532_at) / RFU KRTAP10-11 (11738290_x_at) / Fold change /veh KRTAP10-11 (11738290_x_at) / RFU MYO3A (11730013_a_at) / Fold change /veh MYO3A (11730013_a_at) / RFU EBF3 (11725865_a_at) / Fold change /veh EBF3 (11725865_a_at) / RFU CAMK2N1 (11719241_x_at) / Fold change /veh CAMK2N1 (11719241_x_at) / RFU C5orf56 (11738088_a_at) / Fold change /veh C5orf56 (11738088_a_at) / RFU OLFML3 (11715873_a_at) / Fold change /veh OLFML3 (11715873_a_at) / RFU LOC100653217 /// NTM (11731650_a_at) / Fold change /veh LOC100653217 /// NTM (11731650_a_at) / RFU MAPK11 (11762145_a_at) / Fold change /veh MAPK11 (11762145_a_at) / RFU FIZ1 (11724087_x_at) / Fold change /veh FIZ1 (11724087_x_at) / RFU OASL (11726364_x_at) / Fold change /veh OASL (11726364_x_at) / RFU SOX15 (11748057_x_at) / Fold change /veh SOX15 (11748057_x_at) / RFU CD79A (11719716_a_at) / Fold change /veh CD79A (11719716_a_at) / RFU HIST1H1D (11736915_at) / Fold change /veh HIST1H1D (11736915_at) / RFU CASKIN2 (11723855_a_at) / Fold change /veh CASKIN2 (11723855_a_at) / RFU LOC730098 (11760151_x_at) / Fold change /veh LOC730098 (11760151_x_at) / RFU OR4N2 (11742367_at) / Fold change /veh OR4N2 (11742367_at) / RFU PRRT2 (11749266_a_at) / Fold change /veh PRRT2 (11749266_a_at) / RFU SNX32 (11753110_a_at) / Fold change /veh SNX32 (11753110_a_at) / RFU CDHR5 (11726645_a_at) / Fold change /veh CDHR5 (11726645_a_at) / RFU RCAN1 (11760418_a_at) / Fold change /veh RCAN1 (11760418_a_at) / RFU FAM167A (11723789_a_at) / Fold change /veh FAM167A (11723789_a_at) / RFU FAM26E (11764081_at) / Fold change /veh FAM26E (11764081_at) / RFU ISYNA1 (11749810_s_at) / Fold change /veh ISYNA1 (11749810_s_at) / RFU ACY1 (11761880_at) / Fold change /veh ACY1 (11761880_at) / RFU 11764098_at / Fold change /veh 11764098_at / RFU SAMD14 (11745864_x_at) / Fold change /veh SAMD14 (11745864_x_at) / RFU NPB (11741838_a_at) / Fold change /veh NPB (11741838_a_at) / RFU TMPRSS6 (11731388_a_at) / Fold change /veh TMPRSS6 (11731388_a_at) / RFU KRTAP10-2 (11738614_at) / Fold change /veh KRTAP10-2 (11738614_at) / RFU ARHGAP8 /// PRR5-ARHGAP8 (11727945_x_at) / Fold change /veh ARHGAP8 /// PRR5-ARHGAP8 (11727945_x_at) / RFU KRTAP5-7 /// NADSYN1 (11734609_at) / Fold change /veh KRTAP5-7 /// NADSYN1 (11734609_at) / RFU RASL12 (11751679_a_at) / Fold change /veh RASL12 (11751679_a_at) / RFU CDKN2B (11736163_a_at) / Fold change /veh CDKN2B (11736163_a_at) / RFU PRF1 (11729649_at) / Fold change /veh PRF1 (11729649_at) / RFU, ZNF638 /// ZNF638-IT1 / Fold change vs veh, ZNF638 /// ZNF638-IT1 / RFU, PANK3 / Fold change vs veh, PANK3 / RFU, SH3YL1 / Fold change vs veh, SH3YL1 / RFU, ZEB2 / Fold change vs veh, ZEB2 / RFU, NRIP1 / Fold change vs veh, NRIP1 / RFU, PTTG1IP / Fold change vs veh, PTTG1IP / RFU, CAPN2 / Fold change vs veh, CAPN2 / RFU, MED14 / Fold change vs veh, MED14 / RFU, SNORA58 / Fold change vs veh, SNORA58 / RFU, C1orf63 / Fold change vs veh, C1orf63 / RFU, LRRFIP1 / Fold change vs veh, LRRFIP1 / RFU, NDUFAF7 / Fold change vs veh, NDUFAF7 / RFU, SLC12A2 / Fold change vs veh, SLC12A2 / RFU, IBTK / Fold change vs veh, IBTK / RFU, ESF1 / Fold change vs veh, ESF1 / Fold change vs veh, TMEM50B / RFU, TAOK1 / Fold change vs veh, TAOK1 / RFU, ACBD3 / Fold change vs veh, ACBD3 / RFU, TMA16 / Fold change vs veh, TMA16 / RFU, RWDD3 / Fold change vs veh, RWDD3 / RFU, BCAT1 / Fold change vs veh, BCAT1 / RFU, EDEM3 / Fold change vs veh, EDEM3 / RFU, TMEM33 / Fold change vs veh, TMEM33 / RFU, WDR75 / Fold change vs veh, WDR75 / RFU, AHCTF1 / Fold change vs veh, AHCTF1 / RFU, TFRC / Fold change vs veh, TFRC / RFU, ZDHHC17 / Fold change vs veh, ZDHHC17 / RFU, NOM1 / Fold change vs veh, NOM1 / RFU, ARL8B / Fold change vs veh, ARL8B / RFU, ZBTB11 / Fold change vs veh, ZBTB11 / RFU, TAMM41 / Fold change vs veh, TAMM41 / RFU, KIAA1704 /// LOC100996395 / Fold change vs veh, KIAA1704 /// LOC100996395 / RFU, ING1 / Fold change vs veh, ING1 / RFU, TRMT61B / Fold change vs veh, TRMT61B / RFU, FUBP3 / Fold change vs veh, FUBP3 / RFU, TP53 / Fold change vs veh, TP53 / RFU, TNKS2 / Fold change vs veh, TNKS2 / RFU, ZFP14 / Fold change vs veh, ZFP14 / RFU, ACTR2 / Fold change vs veh, ACTR2 / RFU, PPP3R1 / Fold change vs veh, PPP3R1 / RFU, PIK3R1 / Fold change vs veh, PIK3R1 / RFU, HNRNPA1 / Fold change vs veh, HNRNPA1 / RFU, RNF170 / Fold change vs veh, RNF170 / RFU, ZNF28 / Fold change vs veh, ZNF28 / RFU, RNGTT / Fold change vs veh, RNGTT / RFU, OGT / Fold change vs veh, OGT / RFU, BRD1 / Fold change vs veh, BRD1 / RFU, MARS / Fold change vs veh, MARS / RFU, ZNF655 / Fold change vs veh, ZNF655 / RFU, FAHD1 / Fold change vs veh, FAHD1 / RFU, BDP1 / Fold change vs veh, BDP1 / RFU, LRRCC1 / Fold change vs veh, LRRCC1 / RFU, ARID1A / Fold change vs veh, ARID1A / RFU, ZNF146 / Fold change vs veh, ZNF146 / RFU, ZNF330 / Fold change vs veh, ZNF330 / RFU, GPN3 / Fold change vs veh, GPN3 / RFU, C9orf123 / Fold change vs veh, C9orf123 / RFU, N4BP2L2 / Fold change vs veh, N4BP2L2 / RFU, ARFIP1 / Fold change vs veh, ARFIP1 / RFU, FAM179B / Fold change vs veh, FAM179B / RFU, BCL10 / Fold change vs veh, BCL10 / RFU, UHRF1BP1L / Fold change vs veh, UHRF1BP1L / RFU, BET1 / Fold change vs veh, BET1 / RFU, CNOT2 / Fold change vs veh, CNOT2 / RFU, ZNF268 / Fold change vs veh, ZNF268 / Fold change vs veh, ZNF507 / RFU, DGCR2 / Fold change vs veh, DGCR2 / RFU, WDSUB1 / Fold change vs veh, WDSUB1 / Fold change vs veh, HSP90B1 /// MIR3652 / RFU, ADSS / Fold change vs veh, ADSS / RFU, GK / Fold change vs veh, GK / RFU, ZNF148 / Fold change vs veh, ZNF148 / RFU, TAF9 / Fold change vs veh, TAF9 / RFU, SLC1A5 / Fold change vs veh, SLC1A5 / RFU, SLMO2 / Fold change vs veh, SLMO2 / RFU, ABCC4 / Fold change vs veh, ABCC4 / RFU, LOC101060439 /// RAP1B / Fold change vs veh, LOC101060439 /// RAP1B / RFU, RFX7 / Fold change vs veh, RFX7 / RFU, GTPBP10 / Fold change vs veh, GTPBP10 / RFU, CNEP1R1 / Fold change vs veh, CNEP1R1 / RFU, BIVM-ERCC5 /// ERCC5 / Fold change vs veh, BIVM-ERCC5 /// ERCC5 / RFU, ILF3 / Fold change vs veh, ILF3 / RFU 11762660_at / Fold change /veh 11762660_at / RFU VCAN (11757783_s_at) / Fold change /veh VCAN (11757783_s_at) / RFU DDX43 (11728927_at) / Fold change /veh DDX43 (11728927_at) / RFU KRT8 (11758188_x_at) / Fold change /veh KRT8 (11758188_x_at) / RFU NKD1 (11759106_at) / Fold change /veh NKD1 (11759106_at) / RFU SRD5A1 (11742802_a_at) / Fold change /veh SRD5A1 (11742802_a_at) / RFU TPSAB1 /// TPSB2 (11721975_s_at) / Fold change /veh TPSAB1 /// TPSB2 (11721975_s_at) / RFU GSTM3 (11746129_a_at) / Fold change /veh GSTM3 (11746129_a_at) / RFU IL23R (11737362_x_at) / Fold change /veh IL23R (11737362_x_at) / RFU TMEM51 (11727254_a_at) / Fold change /veh TMEM51 (11727254_a_at) / RFU PIWIL2 (11732686_x_at) / Fold change /veh PIWIL2 (11732686_x_at) / RFU ORM1 (11744905_x_at) / Fold change /veh ORM1 (11744905_x_at) / RFU CCDC152 (11743942_at) / Fold change /veh CCDC152 (11743942_at) / RFU ECM1 (11717891_a_at) / Fold change /veh ECM1 (11717891_a_at) / RFU IL23R (11748794_a_at) / Fold change /veh IL23R (11748794_a_at) / RFU TNFAIP8L3 (11732012_x_at) / Fold change /veh TNFAIP8L3 (11732012_x_at) / RFU MBOAT4 (11741988_at) / Fold change /veh MBOAT4 (11741988_at) / RFU 11764193_at / Fold change /veh 11764193_at / RFU TMEM53 (11763286_at) / Fold change /veh TMEM53 (11763286_at) / RFU MAGEB2 (11727129_at) / Fold change /veh MAGEB2 (11727129_at) / RFU TMEM200A (11744735_a_at) / Fold change /veh TMEM200A (11744735_a_at) / RFU CCDC152 (11751479_a_at) / Fold change /veh CCDC152 (11751479_a_at) / RFU FAM211A (11726209_a_at) / Fold change /veh FAM211A (11726209_a_at) / RFU RGS16 (11746705_a_at) / Fold change /veh RGS16 (11746705_a_at) / RFU VCAN (11755009_s_at) / Fold change /veh VCAN (11755009_s_at) / RFU RHOB (11743442_s_at) / Fold change /veh RHOB (11743442_s_at) / RFU RGS16 (11720943_a_at) / Fold change /veh RGS16 (11720943_a_at) / RFU RGS16 (11720944_at) / Fold change /veh RGS16 (11720944_at) / RFU, VPS4B / Fold change vs veh, VPS4B / RFU, CREB1 / Fold change vs veh, CREB1 / RFU, DNAJC13 / Fold change vs veh, DNAJC13 / RFU, GNAQ / Fold change vs veh, GNAQ / RFU, CDK5R1 / Fold change vs veh, CDK5R1 / RFU, ZRANB3 / Fold change vs veh, ZRANB3 / RFU, CUL4A / Fold change vs veh, CUL4A / RFU, CCNY / Fold change vs veh, CCNY / RFU, UFL1 / Fold change vs veh, UFL1 / RFU, COG3 / Fold change vs veh, COG3 / RFU, DIAPH2 / Fold change vs veh, DIAPH2 / RFU, SKA2 / Fold change vs veh, SKA2 / RFU, AFF3 / Fold change vs veh, AFF3 / RFU, LMF1 / Fold change vs veh, LMF1 / RFU, IPO11 / Fold change vs veh, IPO11 / RFU, DFFB / Fold change vs veh, DFFB / RFU, FOXP1 / Fold change vs veh, FOXP1 / RFU, CARD8 / Fold change vs veh, CARD8 / RFU, STRN3 / Fold change vs veh, STRN3 / RFU, ADK / Fold change vs veh, ADK / RFU, RASSF2 / Fold change vs veh, RASSF2 / RFU, WIPF1 / Fold change vs veh, WIPF1 / RFU, LARP1B / Fold change vs veh, LARP1B / RFU, RASA1 / Fold change vs veh, RASA1 / RFU, RB1 / Fold change vs veh, RB1 / RFU, PPFIA1 / Fold change vs veh, PPFIA1 / RFU, MAT2A / Fold change vs veh, MAT2A / RFU, CCT5 / Fold change vs veh, CCT5 / RFU, WDR92 / Fold change vs veh, WDR92 / RFU, CUX1 / Fold change vs veh, CUX1 / RFU, TTC7A / Fold change vs veh, TTC7A / RFU, TMEM135 / Fold change vs veh, TMEM135 / RFU, DEPTOR / Fold change vs veh, DEPTOR / RFU, CPM / Fold change vs veh, CPM / RFU, DNAJB6 / Fold change vs veh, DNAJB6 / RFU, CACNA2D3 / Fold change vs veh, CACNA2D3 / RFU, DTX4 / Fold change vs veh, DTX4 / RFU, TFCP2 / Fold change vs veh, TFCP2 / RFU, GMCL1 /// GMCL1P1 / Fold change vs veh, GMCL1 /// GMCL1P1 / RFU, AEBP2 / Fold change vs veh, AEBP2 / RFU, SNHG1 /// SNORD22 /// SNORD25 /// SNORD26 /// SNORD27 /// SNORD28 /// SNORD29 /// SNORD31 / Fold change vs veh, SNHG1 /// SNORD22 /// SNORD25 /// SNORD26 /// SNORD27 /// SNORD28 /// SNORD29 /// SNORD31 / Fold change (Aza/veh), C12orf56 (ProbeSet 11735607_a_at) / Fold change (ACY-1035/veh), C12orf56 (ProbeSet 11735607_a_at) / Fold change (Aza/veh), FGFR1OP (ProbeSet 11751329_s_at) / Fold change (ACY-1035/veh), FGFR1OP (ProbeSet 11751329_s_at) / Fold change (Aza/veh), VPS36 (ProbeSet 11739960_a_at) / Fold change (ACY-1035/veh), VPS36 (ProbeSet 11739960_a_at) / RFU SYPL1 (11715823_x_at) / Fold change /veh SYPL1 (11715823_x_at) / RFU IGFBP7 (11715501_s_at) / Fold change /veh IGFBP7 (11715501_s_at) / RFU REEP3 (11722064_at) / Fold change /veh REEP3 (11722064_at) / RFU IGLL1 (11728026_x_at) / Fold change /veh IGLL1 (11728026_x_at): dose or concentration left out as unconfirmed
Conditions: ProbeSet 11722302_a_at; LIST B

Nc1ncn([C@@H]2O[C@H](CO)[C@@H](O)[C@H]2O)c(=O)n1 [azacitidine]
RFU, LRRFIP1: 130.71 RFU
